{
  "source": "PubChem BioAssay AID602132",
  "about": "(Sanford-Burnham Center for Chemical Genomics, 2011)",
  "note": "Activity calls are given as the source filed them. No rule for the calls is given here.",
  "data": [
    {"target": "glucose-6-phosphate dehydrogenase-6-phosphogluconolactonase [Plasmodium falciparum 3D7]", "test": "inhibition of P. falciparum G6PD activity – biochemical, direct NADPH end-point detection, set 2, orthogonal assay for PfG6PD antimalarial inhibitor project, SAR follow-up (AID 602132)", "conditions": "recombinant PfG6PD", "values": [
      {"compound": "O=C(NCCNC1CCCCC1)c1ccc2c(c1)NC(=O)c1ccccc1S2", "IC50": "> 80 µM (inactive)"},
      {"compound": "CN(C)c1ccccc1CNC(=O)c1ccc2c(c1)NC(=O)/C(=C/c1ccccc1F)S2", "IC50": "> 80 µM (inactive)"},
      {"compound": "CCN1CCCC1CNC(=O)c1ccc2c(c1)NC(=O)/C(=C/c1cccc(F)c1F)S2", "note": "(stereo unspecified)", "IC50": "> 80 µM (inactive)"},
      {"compound": "O=C(NCCN1CCCCC1)c1ccc2c(c1)NC(=O)c1ccccc1S2", "IC50": "25.4 µM"},
      {"compound": "CCN1CCC[C@@H]1CNC(=O)c1ccc2c(c1)NC(=O)c1ccccc1S2", "IC50": "6.69 µM"},
      {"compound": "CCN1CCCC1CNC(=O)c1ccc2c(c1)NC(=O)C(Cc1ccccc1F)S2", "note": "(stereo unspecified)", "IC50": "> 80 µM (inactive)"},
      {"compound": "NC1CCN(C(=O)c2ccc3c(c2)NC(=O)/C(=C/c2ccccc2F)S3)C1", "note": "(stereo unspecified)", "IC50": "> 80 µM (inactive)"},
      {"compound": "CCN(CC)CCCC(C)Nc1ccnc2cc(Cl)ccc12", "note": "(stereo unspecified)", "IC50": "> 80 µM (inactive)"},
      {"compound": "CCC(C)N1CCCC1CNC(=O)c1ccc2c(c1)NC(=O)c1ccccc1S2", "note": "(stereo unspecified)", "IC50": "> 80 µM (inactive)"},
      {"compound": "CCCN1CCCC1CNC(=O)c1ccc2c(c1)NC(=O)/C(=C/c1ccccc1F)S2", "note": "(stereo unspecified)", "IC50": "> 80 µM (inactive)"},
      {"compound": "CCN1CCCC1CNC(=O)c1ccc2c(c1)NC(=O)/C(=C/c1cccc(F)c1)S2", "note": "(stereo unspecified)", "IC50": "> 80 µM (inactive)"},
      {"compound": "CCN1CCCC1CNC(=O)c1ccc2c(c1)NC(=O)/C(=C/c1ccc3ccccc3c1)S2", "note": "(stereo unspecified)", "IC50": "> 80 µM (inactive)"},
      {"compound": "NCCNC(=O)c1ccc2c(c1)NC(=O)c1ccccc1S2", "IC50": "> 80 µM (inactive)"},
      {"compound": "NC1CCN(C(=O)c2ccc3c(c2)NC(=O)c2ccccc2S3)C1", "note": "(stereo unspecified)", "IC50": "> 80 µM (inactive)"},
      {"compound": "CCN1CCC[C@H]1CNC(=O)c1ccc2c(c1)NC(=O)c1ccccc1S2", "IC50": "64.8 µM"},
      {"compound": "CCN1CCCC1CNC(=O)c1ccc2c(c1)NC(=O)/C(=C/c1c(F)cccc1F)S2", "note": "(stereo unspecified)", "IC50": "> 80 µM (inactive)"},
      {"compound": "O=C1Nc2cc(C(=O)NCC3CCCN3)ccc2S/C1=C\\c1ccccc1F", "note": "(stereo unspecified)", "IC50": "> 80 µM (inactive)"},
      {"compound": "CCC(C)N(CCNC(=O)c1ccc2c(c1)NC(=O)c1ccccc1S2)C1CCCCC1", "note": "(stereo unspecified)", "IC50": "25 µM"},
      {"compound": "CC(C)(C)OC(=O)N1CCCC1CNC(=O)c1ccc2c(c1)NC(=O)/C(=C/c1ccccc1F)S2", "note": "(stereo unspecified)", "IC50": "> 80 µM (inactive)"},
      {"compound": "O=C(NCCN1CCOCC1)c1ccc2c(c1)NC(=O)c1ccccc1S2", "IC50": "> 80 µM (inactive)"},
      {"compound": "CCN1CCCC1CNC(=O)c1ccc2c(c1)NC(=O)/C(=C/c1ccc(F)cc1)S2", "note": "(stereo unspecified)", "IC50": "> 80 µM (inactive)"}
    ]}
  ]
}
